Data from US20080288176A1 (priority 2005, published 2008).
Where two headings read alike, the source gives them in different places. Each block holds one compound with its values, some of them ahead of it.

Key:
[1] = Stability in gastric environment (gastric decay rate); type: in vitro ADME
Text: (§1) The physiologically based pharmacokinetic/pharmacodynamic model of the present invention contains a series of compartments that describe the time course of a nonsteroidal anti-inflammatory prodrug, its active metabolites and nitric oxide release in intestine, liver, kidneys, blood/plasma and heart after prodrug administration. The time course of the prodrug, its active metabolites and nitric oxide release can be simulated using a series of in vitro and in silico inputs. The stability of each component in the gastrointestinal lumen is estimated using data collected from artificial gastric and intestinal juice. Intestinal metabolism is estimated using intestinal microsomes and absorption rate is estimated using permeability data collected from a cell monolayer such as Caco-2. Hepatic elimination is estimated using liver microsomes and stability in plasma is calculated using degradation of each component in the media. Plasma protein binding can either be measured using a standardized in vitro method or it can be estimated using an in silico method. The distribution of each component in various parts of the body is estimated using an in silico method. The rate of nitric oxide release is estimated using an in vitro endothelial cell model. The time course of prodrug, its active metabolites and nitric oxide can be simulated in human and animal using this physiologically based pharmacokinetic/pharmacodynamic model provided that the corresponding in vitro and in silico data are used as inputs.
(§2) Representative in vitro tests or in silico estimates include: (a) pKa estimation or measurement; (b) Log P measurement or in silico estimation; (c) Solubility in various physiological fluids; (d) Permeability. Caco-2 and/or NOVOKIN's proprietary animal and human cell lines can be used to obtain this parameter; (e) Metabolic rate in the intestine and liver. Human or animal intestinal microsomes, S9 fraction, and cytosol can be used for this purpose. Human or animal hepatocytes, liver microsomes, S9 fraction, and cytosol can also be used; (f) Hydrolysis in human or animal plasma; (g) Serum or plasma protein binding. It can be measured in vitro or estimated in silico; (h) The rate of NO release; (i) Existing pharmacokinetic and pharmacodynamic data of NSAID or a biocompatible agent; (j) Existing NO release rate of known diazeniumdiolate if applicable; (k) Stability in gastric and intestinal environment; and (l) In silico volume of distribution estimation.

[2] = Hydrolysis in human liver microsomes; type: in vitro ADME
Text: as §1, with “The” for “The physiologically based pharmacokinetic/pharmacodynamic model of the present invention contains a series of compartments that describe the time course of a nonsteroidal anti-inflammatory prodrug, its active metabolites and nitric oxide release in intestine, liver, kidneys, blood/plasma and heart after prodrug administration. The”
The selection of in vitro tests is designed to provide parameters for the above mentioned model. The use of an inappropriate test would result in wrong predictions.
as §2
The simulation begins with no material in all compartments except for the initial bolus in one compartment (typically the stomach compartment). The simulation then estimates the changing distribution of the material with time.

[3] = Hydrolysis in rat liver microsomes; type: in vitro ADME
Text: as §1, §2
(§3) Whenever in vitro estimate is attainable, the in vitro results will be used, for example, plasma protein binding. Methods reported by Bowalgaha & Miners (2001), Martignoni et al. (2006), Tong et al. (2001) and Thulesen et al. (1999) were used for in vitro and in vivo scale-up for clearance in the intestine, absorption rate constant and hepatic clearance. The simulation begins with no material in all compartments except for the initial bolus in one compartment (typically the stomach compartment). The simulation then estimates the changing distribution of the material with time.

Hydrolysis in rat plasma = type: in vitro ADME; details: NO-AA formed from the prodrug
Text: as §1, §2

[4] = Hydrolysis in rat intestinal microsomes; type: in vitro ADME
Text: as §1, §2, §3

[5] = Hydrolysis in human intestinal microsomes; type: in vitro ADME
Text: as §1
The selection of in vitro tests is designed to provide parameters for the above mentioned model. The use of an inappropriate test would result in wrong predictions. For example, Knaus et al. (2005) used guinea pig serum and porcine esterases to hydrolyze their O^2-substituted diazeniumdiolate derivatives of ASPIRIN, as disclosed in U.S. Ser. No. 60/681,842. These tests provided very little information in terms of in vivo human NO-NSAID metabolism rate and the extent to which metabolic conversion to NO donor and NSAID occurred. […] The half-life values were less than one minute. Based on these observations, it has become apparent that prior to entering the systemic circulation, it is likely that the NO-NSAID would have been hydrolyzed in the enterocytes and little or no NO-NSAID would have been detected in the blood stream. Furthermore, the release of NO will commence immediately once the NO donor is detached from the NSAID.
as §2, §3

[6] = Stability in intestinal lumen (decay rate); type: in vitro ADME
Text: as §1, §2

[7] = Hydrolysis in various enzymatic preparations (rat and human intestinal and liver microsomes)
[8] = Chemical stability (loss of diazeniumdiolate) in phosphate buffer; type: physicochemical
Procedure: They varied only in the nitrogen substituent of the amino acid, i.e. free amine (1), acetyl (2) and pivaloyl (3) groups. Their chemical stability was evaluated in phosphate buffer at different pH's over a 30 minute period (Table 11).

[9] = Enzymatic hydrolysis in liver microsomal preparations (LC-MS); type: in vitro ADME; details: liver microsomal preparations
Procedure: (§4) The sensitivity of the prodrug 3 towards enzymatic hydrolysis was evaluated by LC-MS. Liver and intestinal microsomal preparations were used. […] However, these rates were slower than the enzymatic hydrolysis rates determined for the conversion of 1→4 and 2→5 (complete hydrolysis observed in 10 and 30 minutes respectively in liver microsomal preparations).

[10] = Enzymatic hydrolysis in intestinal microsomal preparations (LC-MS); type: in vitro ADME; details: after 2 hours
Procedure: as §4

[11] = Serum nitrate concentration (NO release) after oral dosing; type: in vivo, rat; details: male Wistar rats, oral gavage, at 6 hours
Procedure: (§5) Table 1 is a summary of the protocol for a study which was conducted in male Wistar rats weighing 275-300 grams. The animals were allowed to acclimatize for at least five days prior to the commencement of the study. The study protocol was approved by the local animal ethics committee.
(§6) The animals were fasted overnight prior to test substance administration. The test substance was administered orally by gavage on the morning of the study day. All test animals had blood collected during the test period in both EDTA (ethylenediaminetetraacetic acid) tubes and SST (Serum Separator Tubes) at 1, 3 and 6 hours after dosing. Blood was collected into EDTA tubes only at 1 and 3 hours by tail tip amputation. Volume of blood collected was between 0.5 and 1 mL at each of these collections. The final collection was by puncture of the abdominal vena cava under isoflurane general anesthesia. Final blood collection was targeted as follows: 1st EDTA #1—1.5 mL; 2nd SST—1.5 mL; 3rd EDTA #2—as much as possible.
EDTA samples were centrifuged, and the plasma portion was collected and frozen at −80° C. SST samples were incubated at 37° C. for approximately 45 minutes, centrifuged, and the serum was collected and frozen at −80° C. until analysis.

[12] = system: cardiac tissue prostacyclin (PGI2) to thromboxane A2 (TXB2) ratio; experiment: Cardiac tissue prostacyclin to thromboxane ratio; type: in vivo, rat; details: male Wistar rats
Text: (§7) Myocardial infarction and ischemic events in high risk patients led one of the most popular COX-2 inhibitors to its demise (Bresalier et al., 2005). Non-selective NSAIDS may also cause similar problems due to their ability to inhibit COX-2. […] Adenosine diphosphate (ADP) generation is an indicator of myocardial infarction which has no connection with the arachidonic acid cascade (Borna et al., 2005). […] Long term NSAID use has been linked to kidney damage and hypertension (Zafirovska et al., 1993). […] This was associated with an increase in the urine the ratio of alanine-amino-peptidase (AAP) and creatinine.
as §5
All rats were euthanized by removal of the heart 6 hours after initial dosing, following final blood collections. Immediately after terminal blood collections were complete, the thorax was opened and the heart removed. The heart was cut in half longitudinally. Half of the heart was placed in formalin for histological examination. The other half was quickly rinsed in saline and then freeze-clamped (crushed between the jaws of a pair of modified tongs, cooled by liquid nitrogen). An entire kidney was freeze-clamped. The other kidney was left in situ for examination by the pathologist. Freeze-clamped tissues were wrapped in labeled aluminum foil and stored in liquid nitrogen until they could be transferred to a −80° C. freezer. Freeze-clamped tissues were shipped on dry ice to NOVOKIN for analysis.

[13] = Human; estimated from Table II - Runkle, 1972; cited from earlier work
male Wistar rats [14] = experiment: Urine N-acetylglucosaminidase to creatinine ratio (distal tubule toxicity); type: in vivo, rat; details: oral gavage, urine collected for 6 hours
Procedure: as §5
(§8) All test animals, housed in metabolic cages, had urine collected over wet ice for 6 hours after dosing. Aliquots of the urine from each animal were collected to determine creatinine concentration. The remainder of the urine was centrifuged at 1000 g for 10 minutes. The supernatant was collected and mixed with analytical grade ethylene glycol at a rate of 0.4 mL ethylene glycol per 1 mL urine supernatant. The ethylene glycol/urine mixture was stored at −80° C. until analysis.

male Wistar rats [15] = experiment: Gastric ulcer index after oral dosing; type: in vivo, rat
Procedure: as §5, §6
Each animal from all groups underwent a full necropsy under the supervision of a board certified veterinary pathologist. The stomach of each rat was cut along the greater curvature, contents removed into a polypropylene (Falcon) tube, the mucosa rinsed with saline and any obvious ulcers or erosions were measured along the longest axis. This measurement was recorded for each ulcer or erosion observed in each stomach. The falcon tubes and their contents were frozen at −80° C. and shipped to Novokin on dry ice for analysis.
The aggregate length of all gastric ulcers found in a given animal was calculated. The mean aggregate ulcer length across animals in a group was calculated. This mean value was reported as the ulcer index for that group.
The ulcer index of each modified drug was compared with the ulcer index of its associated parent drug and the controls using analysis of variance and Duncan's multiple range test for pairwise comparisons. Statistical analysis was done using SAS® (SAS Institute Inc., Cary, N.C.).

[16] = Rat; estimated from Table II - Runkle, 1972; cited from earlier work
male Wistar rats [17] = experiment: Urine alanine aminopeptidase to creatinine ratio (proximal tubular kidney damage); type: in vivo, rat; details: oral gavage, urine collected for 6 hours
Text: as §7, §5, §8

SMILES: COc1ccc2cc(C(C)C(=O)OCOC(=O)C(CCC(=O)OCON=[N+]([O-])N(C)C)NC(=O)C(C)(C)C)ccc2c1 (stereo not shown) [CMD 114]
gastric decay rate constant ([1]; Human): 0 /mint | gastric decay rate constant ([1]; Rat): 0 /mint | liver molar percent conversion to Naproxen [2]: 50% | liver microsomal activity ([2]; model input): 721224 mL/min/organ | liver molar percent conversion to Naproxen [3]: 60% | liver microsomal activity ([3]; model input): 7667 mL/min/organ | Hydrolysis of the NO-AA in rat plasma (in words) (Hydrolysis in rat plasma): relatively fast rate | NO-AA half-life in plasma (Hydrolysis in rat plasma; Rat): 3.8 min | intestinal molar percent conversion to Naproxen [4]: 42% | intestinal microsomal activity ([4]; model input): 9 mL/min/organ | intestinal molar percent conversion to Naproxen [5]: 78% | intestinal microsomal activity ([5]; model input): 5006 mL/min/organ | intestinal lumen decay rate constant ([6]; Human): 0.67 min⁻¹ | intestinal lumen decay rate constant ([6]; Rat): 0.67 min⁻¹ | Stability of the NO-AA formed (in words) ([7]; intestinal and liver microsomes of human and rats): relatively stable | Initial loss of the prodrug candidate (in words) ([7]; various enzymatic preparations): rapid initial loss

Stability (loss of diazeniumdiolate), pH 2.5 ([8]; 30 min, pH 2.5): ✓ | Stability (loss of diazeniumdiolate), pH 5.0 ([8]; 30 min, pH 5.0): ✓ | Stability (loss of diazeniumdiolate), pH 7.0 ([8]; 30 min, pH 7.0): ✓ | Chemical stability (in words) ([8]; pH range 2.5-7.0, 30 minute period): stable | Time to complete hydrolysis (cleavage of the diazeniumdiolate) [9]: 2 h | Conversion to NSAID-amino acid (cleavage of the diazeniumdiolate) [10]: 50%
SMILES: COc1ccc2cc(C(C)C(=O)OC3CC(C(=O)OCO/N=[N+](\[O-])N(C)C)N(C(=O)C(C)(C)C)C3)ccc2c1 (stereo not shown) [Compound 3]

SMILES: COc1ccc2cc([C@H](C)C(=O)O)ccc2c1 [NAP, naproxen]
Serum Nitrate Concentrations, Mean [11]: 55.167 | PGI2 and TXA2 levels (in words) ([12]; cardiac tissue): lowered both PGI2 and TXA2 levels | Cardiac Tissue PGI2/TXB2, Mean ([12]; oral gavage, heart removed 6 hours after dosing): 4.544 | liver microsomal activity [13]: 0.0092 mL/min/organ | Urine NAG/Cr values, Mean (male Wistar rats [14]): 30.865 | Ulcer Indices, Mean (male Wistar rats [15]; oral gavage, naproxen 250 mg/kg or molar equivalent (ROF 250 mg/kg), 6 h after dosing, mean aggregate gastric ulcer length): 4.282 | Ulcerogenicity (in words) (male Wistar rats [15]; oral, 6 h): severely ulcerogenic | liver microsomal activity [16]: 0.0075 mL/min/organ | AAP/Cr (urine alanine aminopeptidase to creatinine), Mean (male Wistar rats [17]): 263.788
